Columns and labels:
Format in all cases: biochemical
PKR R532W = PKR R532W (Homo sapiens, UniProt P30613, R532W); assay: PKR Mutant Assay, AC50 against PKR R532W; conditions: mutant PKR R532W enzyme
Procedure: (§1) • PKR or PKR mutant enzyme solution was diluted in assay buffer. • 2 μL of test compound was added into wells first, and then 180 μL reaction mix was added. • Reactions mixture with test compound was assembled except for ADP, and plates were stored for 60 minutes at room temperature. • 20 uL ADP was added to start reaction at room temperature and reaction progress was measured as changes in absorbance at 340 nm wavelength at room temperature.
(§2) Test Compound Preparation: • Test compound stock was made at 100× concentration in 100% DMSO (10 mM) • 1 to 3 dilutions were made for 11 points (i.e. 50 μl of first concentration added to 100 μl 100% DMSO to yield 3.33 mM, 50 μl of this added to 100 μl DMSO to yield 1.11 mM, and so forth) • 1 to 100 dilution into assay (2 μl in 200 μl) yielded starting concentration of 100 μM, decreasing 3 fold for 11 points. Assay Buffer: 100 mM KCl, 50 mM Tris 7.5, 5 mM MgCl2, 1 mM DTT, 0.03% BSA Reaction Mixture: PKR mutant enzyme: 80-400 ng/well; ADP: 0.22-1.65 mM; PEP: 0.1-0.5 mM; NADH: 180 uM; LDH: 0.5 units (Sigma#59023); DTT: 1 mM; BSA: 0.03%.

PKR WT = PKR WT (Homo sapiens, UniProt P30613); assay: PKR WT enzymatic AC50 assay; conditions: wild type PKR
Chain of PKR WT (P30613 whole entry): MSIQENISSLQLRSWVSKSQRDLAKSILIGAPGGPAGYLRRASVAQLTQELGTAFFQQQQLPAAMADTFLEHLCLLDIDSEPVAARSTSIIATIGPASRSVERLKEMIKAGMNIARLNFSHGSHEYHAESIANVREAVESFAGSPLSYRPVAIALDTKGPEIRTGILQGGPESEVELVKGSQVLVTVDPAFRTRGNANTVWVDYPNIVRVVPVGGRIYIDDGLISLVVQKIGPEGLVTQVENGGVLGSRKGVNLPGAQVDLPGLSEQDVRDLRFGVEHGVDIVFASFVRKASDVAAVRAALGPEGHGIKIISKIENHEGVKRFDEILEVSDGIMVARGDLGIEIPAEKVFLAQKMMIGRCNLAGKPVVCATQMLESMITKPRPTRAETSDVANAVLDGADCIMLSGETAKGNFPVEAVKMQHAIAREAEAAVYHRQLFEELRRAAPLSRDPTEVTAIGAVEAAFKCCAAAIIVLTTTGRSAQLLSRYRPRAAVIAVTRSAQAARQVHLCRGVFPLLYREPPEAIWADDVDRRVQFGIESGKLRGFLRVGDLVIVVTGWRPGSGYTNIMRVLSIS
Procedure: as §1, §2

PKR R510Q = PKR R510Q (Homo sapiens, UniProt P30613, R510Q); assay: PKR Mutant Assay, AC50 against PKR R510Q; conditions: mutant PKR R510Q enzyme
Chain of PKR R510Q (P30613 whole entry R510Q): as the sequence (P30613 whole entry) above, with R510Q counted along it
Procedure: as §1, §2

Chain of PKR R532W (P30613 whole entry R532W): as the sequence (P30613 whole entry) above, with R532W counted along it

N#Cc1cc(NS(=O)(=O)c2cccc3cccnc23)ccc1C(=O)N1CCC(O)(c2ccccc2)CC1 [Compound 261, N-(3-cyano-4-(4-hydroxy-4-phenylpiperidine-1-carbonyl)phenyl)quinoline-8-sulfonamide] gave an AC50 (PKR R532W) of 101 to 1000 nM, an AC50 (PKR WT) of 101 to 1000 nM and an AC50 (PKR R510Q) of 101 to 1000 nM.

Compound O=C(c1ccc(NS(=O)(=O)c2csc3cccnc23)cc1)N1CCC(O)(c2ccccc2Cl)CC1 [Compound 280] has an AC50 (PKR R532W) of 101 to 1000 nM, an AC50 (PKR WT) of 101 to 1000 nM and an AC50 (PKR R510Q) of 1010 to 10000 nM.

O=C(c1ccc(NS(=O)(=O)c2cccc3nccnc23)c(F)c1)N1CCC(O)(c2ccccc2Cl)CC1 [Compound 251, N-(4-(4-(2-chlorophenyl)-4-hydroxypiperidine-1-carbonyl)-2-fluorophenyl)quinoxaline-5-sulfonamide] showed an AC50 (PKR R532W) of 101 to 1000 nM, an AC50 (PKR WT) of 101 to 1000 nM and an AC50 (PKR R510Q) of 101 to 1000 nM.

For O=C(c1ccc(NS(=O)(=O)c2cccc3cnccc23)cc1)N1CCC(O)(Cc2ccccc2)CC1 [Compound 283], the AC50 (PKR R532W) was 101 to 1000 nM, the AC50 (PKR WT) was 101 to 1000 nM and the AC50 (PKR R510Q) was 1010 to 10000 nM.

O=C(c1ccc(NS(=O)(=O)c2ccc(F)c3cccnc23)cc1)N1CCC(O)(CC2CCC2)CC1 [Compound 201, N-(4-(4-(cyclobutylmethyl)-4-hydroxypiperidine-1-carbonyl)phenyl)-5-fluoroquinoline-8-sulfonamide] showed an AC50 (PKR R532W) of under 100 nM, an AC50 (PKR WT) of under 100 nM and an AC50 (PKR R510Q) of 101 to 1000 nM.

CC(C)CC1(O)CCN(C(=O)c2ccc(NS(=O)(=O)c3ccc(F)c(N)c3N)cc2)CC1 [Compound 254, 2,3-diamino-4-fluoro-N-(4-(4-hydroxy-4-isobutylpiperidine-1-carbonyl)phenyl)benzenesulfonamide] showed an AC50 (PKR R532W) of 101 to 1000 nM, an AC50 (PKR WT) of 101 to 1000 nM and an AC50 (PKR R510Q) of 101 to 1000 nM.

With CC(C)CC1(CO)CCN(C(=O)c2ccc(NS(=O)(=O)c3cccc4scnc34)cc2)CC1 [Compound 216, N-(4-(4-(hydroxymethyl)-4-isobutylpiperidine-1-carbonyl)phenyl)benzo[d]thiazole-4-sulfonamide] the AC50 (PKR R532W) was under 100 nM, the AC50 (PKR WT) was under 100 nM and the AC50 (PKR R510Q) was 101 to 1000 nM.

Compound O=C(c1ccc(NS(=O)(=O)c2c(F)ccc3ncsc23)cc1)N1CCC(O)(c2ccccc2Cl)CC1 [Compound 303] has an AC50 (PKR R532W) of 1010 to 10000 nM, an AC50 (PKR WT) of 1010 to 10000 nM and an AC50 (PKR R510Q) of over 10000 nM.

For O=C(c1ccc(NS(=O)(=O)c2cccc3nsnc23)cc1)N1CCC(O)(c2ccccc2)CC1 [Compound 294], the AC50 (PKR R532W) was 1010 to 10000 nM, the AC50 (PKR WT) was 1010 to 10000 nM and the AC50 (PKR R510Q) was over 10000 nM.

Compound CC(C)CC1(O)CCN(C(=O)c2ccc(NS(=O)(=O)c3cccn4ccnc34)cc2)CC1 [Compound 312] has an AC50 (PKR R532W) of 1010 to 10000 nM, an AC50 (PKR WT) of 1010 to 10000 nM and an AC50 (PKR R510Q) of over 10000 nM.

With O=C(c1ccc(NS(=O)(=O)c2cccc3snnc23)cc1)N1CCC(O)(c2ccccc2Cl)CC1 [Compound 417] the AC50 (PKR R532W) was 1010 to 10000 nM, the AC50 (PKR WT) was 1010 to 10000 nM and the AC50 (PKR R510Q) was over 10000 nM.

With CC(C)CC1(O)CCN(C(=O)c2ccc(NS(=O)(=O)c3cccc4csnc34)cc2)CC1 [Compound 257] the AC50 (PKR R532W) was 101 to 1000 nM, the AC50 (PKR WT) was 101 to 1000 nM and the AC50 (PKR R510Q) was 1010 to 10000 nM.

In the case of C=C(C)CC1(O)CCN(C(=O)c2ccc(NS(=O)(=O)c3cccc4scnc34)cc2)CC1 [Compound 181, N-(4-(4-hydroxy-4-(2-methylallyl)piperidine-1-carbonyl)phenyl)benzo[d]thiazole-4-sulfonamide], the AC50 (PKR R532W) is reported as under 100 nM, the AC50 (PKR WT) is reported as under 100 nM and the AC50 (PKR R510Q) is reported as 101 to 1000 nM.

With O=C(c1ccc(NS(=O)(=O)c2cccc3cccnc23)cc1)N1CCC(O)(CCCO)CC1 [Compound 253, N-(4-(4-hydroxy-4-(3-hydroxypropyl)piperidine-1-carbonyl)phenyl)quinoline-8-sulfonamide] the AC50 (PKR R532W) was 101 to 1000 nM, the AC50 (PKR WT) was 101 to 1000 nM and the AC50 (PKR R510Q) was 1010 to 10000 nM.

Nc1c(F)ccc(S(=O)(=O)Nc2ccc(C(=O)N3CCC(O)(c4ccccc4Cl)CC3)cc2)c1N [Compound 256, 2,3-diamino-N-(4-(4-(2-chlorophenyl)-4-hydroxypiperidine-1-carbonyl)phenyl)-4-fluorobenzenesulfonamide] gave an AC50 (PKR R532W) of 101 to 1000 nM, an AC50 (PKR WT) of 101 to 1000 nM and an AC50 (PKR R510Q) of 1010 to 10000 nM.

Compound CC(C)CC1(O)CCN(C(=O)c2ccc(NS(=O)(=O)c3cccc4csnc34)cc2)CC1 [Compound 376] has an AC50 (PKR R532W) of 101 to 1000 nM, an AC50 (PKR WT) of 101 to 1000 nM and an AC50 (PKR R510Q) of 1010 to 10000 nM.

For O=C(c1ccc(NS(=O)(=O)c2cccc3cccnc23)cc1)N1CCC(C(=O)O)(c2ccccc2)CC1 [Compound 320], the AC50 (PKR R532W) was over 10000 nM, the AC50 (PKR WT) was over 10000 nM and the AC50 (PKR R510Q) was over 10000 nM.

Work on O=C(c1ccc(NS(=O)(=O)c2cccc3cccnc23)cn1)N1CCC(O)(c2ccccc2)CC1 [Compound 298] yielded an AC50 (PKR R532W) of 1010 to 10000 nM, an AC50 (PKR WT) of 1010 to 10000 nM and an AC50 (PKR R510Q) of over 10000 nM.

Compound O=C(c1ccc(NS(=O)(=O)c2ccc(F)c3scnc23)cc1)N1CCC(O)(c2ccccc2Cl)CC1 [Compound 368] has an AC50 (PKR R532W) of 101 to 1000 nM, an AC50 (PKR WT) of 101 to 1000 nM and an AC50 (PKR R510Q) of 1010 to 10000 nM.

CC(C)CC1(CO)CCN(C(=O)c2ccc(NS(=O)(=O)c3cccc4nccnc34)cc2)CC1 [Compound 219, N-(4-(4-(hydroxymethyl)-4-isobutylpiperidine-1-carbonyl)phenyl)quinoxaline-5-sulfonamide] was tested, and the AC50 (PKR R532W) was under 100 nM, the AC50 (PKR WT) was under 100 nM and the AC50 (PKR R510Q) was 101 to 1000 nM.

In the case of O=C(c1ccc(NS(=O)(=O)c2cccc3cccnc23)c(F)c1F)N1CCC(O)(c2ccccc2)CC1 [Compound 302], the AC50 (PKR R532W) is reported as 1010 to 10000 nM, the AC50 (PKR WT) is reported as 1010 to 10000 nM and the AC50 (PKR R510Q) is reported as over 10000 nM.

O=C(c1ccc(NS(=O)(=O)c2ccc(F)c3cccnc23)cc1)N1CCC(O)(c2cccc(F)c2F)CC1 [Compound 227, N-(4-(4-(2,3-difluorophenyl)-4-hydroxypiperidine-1-carbonyl)phenyl)-5-fluoroquinoline-8-sulfonamide] gave an AC50 (PKR R532W) of 101 to 1000 nM, an AC50 (PKR WT) of 101 to 1000 nM and an AC50 (PKR R510Q) of 101 to 1000 nM.

In the case of CC(C)CC1(O)CCN(C(=O)c2ccc(NS(=O)(=O)c3c(F)ccc4ncsc34)cc2)CC1 [Compound 309], the AC50 (PKR R532W) is reported as 1010 to 10000 nM, the AC50 (PKR WT) is reported as 1010 to 10000 nM and the AC50 (PKR R510Q) is reported as over 10000 nM.

For O=C(c1ccc(NS(=O)(=O)c2cccc3cccnc23)cc1)N1CCC(O)(c2cccc(F)n2)CC1 [Compound 286], the AC50 (PKR R532W) was 101 to 1000 nM, the AC50 (PKR WT) was 101 to 1000 nM and the AC50 (PKR R510Q) was 1010 to 10000 nM.

CC(O)CC1(O)CCN(C(=O)c2ccc(NS(=O)(=O)c3cccc4cccnc34)cc2)CC1 (stereo not drawn) [Compound 275] was tested, and the AC50 (PKR R532W) was 101 to 1000 nM, the AC50 (PKR WT) was 101 to 1000 nM and the AC50 (PKR R510Q) was 1010 to 10000 nM.

With N#Cc1ccc(C2(O)CCN(C(=O)c3ccc(NS(=O)(=O)c4cccc5cccnc45)cc3)CC2)cc1 [Compound 255, N-[4-[4-(4-cyanophenyl)-4-hydroxy-piperidine-1-carbonyl]phenyl]quinoline-8-sulfonamide] the AC50 (PKR R532W) was 101 to 1000 nM, the AC50 (PKR WT) was 101 to 1000 nM and the AC50 (PKR R510Q) was 1010 to 10000 nM.

O=C(c1ccc(NS(=O)(=O)c2cccc3scnc23)cc1)N1CCC(O)(CCC(F)(F)F)CC1 [Compound 233, N-(4-(4-hydroxy-4-(3,3,3-trifluoropropyl)piperidine-1-carbonyl)phenyl)benzo[d]thiazole-4-sulfonamide] was tested, and the AC50 (PKR R532W) was 101 to 1000 nM, the AC50 (PKR WT) was 101 to 1000 nM and the AC50 (PKR R510Q) was 101 to 1000 nM.

Work on CC1(O)CCN(C(=O)c2ccc(NS(=O)(=O)c3cccc4cccnc34)cc2)CC1 [Compound 296] yielded an AC50 (PKR R532W) of 1010 to 10000 nM, an AC50 (PKR WT) of 1010 to 10000 nM and an AC50 (PKR R510Q) of over 10000 nM.

Compound O=C(c1ccc(NS(=O)(=O)c2cccc3cccnc23)cc1)N1CCC(O)(Cc2cccnn2)CC1 [Compound 272] has an AC50 (PKR R532W) of 101 to 1000 nM, an AC50 (PKR WT) of 101 to 1000 nM and an AC50 (PKR R510Q) of 1010 to 10000 nM.
